Reference: patent publication US9334279B2, “Hepatitis C virus inhibitors” (BRISTOL-MYERS SQUIBB COMPANY, priority 2012, dated 2016)
Where two headings read alike, the source gives them in different places.

How the values were obtained:
[1] = test system: HCV GT1b(Con1) replicon; assay: HCV replicon luciferase reporter assay, genotype 1b; type: cell-based, HCV genotype 1b; settings: Hepatitis C virus, 72 h, HUH-7 cells, Renilla luciferase, 3 days incubation
In short: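 HUH-7 cells stably carrying a Con1 GT1b replicon with Renilla luciferase and Ser1179Ile adaptive mutation; 3.0×10^3 cells/well, DMEM 4% FCS, 0.5% DMSO, twenty-point 3-fold titration, 3 days 37 °C. Luminescence 2 h after 7.5 μM EnduRen; EC50 by four-parameter logistic fit. CC50 from multiplexed Cell Titer-Blue fluorescence (8 h).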

[2] = test system: HCV GT1a(H77) replicon; assay: HCV replicon luciferase reporter assay, genotype 1a; type: cell-based, HCV genotype 1a; settings: Hepatitis C virus, 72 h, HUH-7 cells, Renilla luciferase, 3 days incubation
In short: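 Huh-7 cells stably carried a GT1a(H77) Renilla luciferase replicon with NS3 P1496L and NS5A S2204I adaptive mutations. Luminescence was read after 2 h with 7.5 μM EnduRen, and EC50 came from a four-parameter logistic fit; CC50 came from multiplexed Cell Titer-Blue (8 h).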

SMILES	EC50 ([1]; read-out: LE_1b (EC50, range)) [nM]	EC50 ([2]; read-out: LE_1a (EC50, range)) [nM]	EC50 ([1]; read-out: LE_1b (EC50)) [nM]	EC50 ([2]; read-out: LE_1a (EC50)) [nM]
C[C@@H]1CC/C=C\[C@@H]2C[C@@]2(C(=O)NS(=O)(=O)C2(C)CC2)NC(=O)[C@@H]2C[C@@H](Oc3ccnc(-c4nccs4)c3)CN2C(=O)[C@@H](NC(=O)OC(C)(C)C(F)(F)F)[C@H](C)C1 [Compound 1025, 1,1,1-trifluoro-2-methylpropan-2-yl ((2R,6S,7R,9R,13aS,14aR,16aS,Z)-7,9-dimethyl-14a-(((1-methylcyclopropyl)sulfonyl)carbamoyl)-5,16-dioxo-2-((2-(thiazol-2-yl)pyridin-4-yl)oxy)-1,2,3,5,6,7,8,9,10,11,13a,14,14a,15,16,16a-hexadecahydrocyclopropa[e]pyrrolo[1,2-a][1,4]diazacyclopentadecin-6-yl)carbamate]	0.51 to 1	1.01 to 5		
CC(C)Oc1ccc(-c2cc(O[C@@H]3C[C@H]4C(=O)N[C@]5(C(=O)NS(=O)(=O)C6(C)CC6)C[C@H]5/C=C\CC[C@@H](C)C[C@@H](C)[C@H](NC(=O)OC5(C(F)(F)F)CCCOC5)C(=O)N4C3)cc(-c3cncs3)n2)cc1 (stereo partly drawn) [Compound 1017, 3-(trifluoromethyl)tetrahydro-2H-pyran-3-yl ((2R,6S,7R,9R,13aS,14aR,16aS,Z)-2-((2-(4-isopropoxyphenyl)-6-(thiazol-5-yl)pyridin-4-yl)oxy)-7,9-dimethyl-14a-(((1-methylcyclopropyl)sulfonyl)carbamoyl)-5,16-dioxo-1,2,3,5,6,7,8,9,10,11,13a,14,14a,15,16,16a-hexadecahydrocyclopropa[e]pyrrolo[1,2-a][1,4]diazacyclopentadecin-6-yl)carbamate]	0.51 to 1	0.51 to 1	0.82	0.95
CC(C)Oc1ccc(-c2cc(O[C@@H]3C[C@H]4C(=O)N[C@]5(C(=O)NS(=O)(=O)C6(C)CC6)C[C@H]5/C=C\CC[C@@H](C)C[C@@H](C)[C@H](NC(=O)OC(C)(C)C(F)(F)F)C(=O)N4C3)cc(-c3cccnc3)n2)cc1 [Compound 1005, 1,1,1-trifluoro-2-methylpropan-2-yl ((2R,6S,7R,9R,13aS,14aR,16aS,Z)-2-((6-(4-isopropoxyphenyl)-[2,3′-bipyridin]-4-yl)oxy)-7,9-dimethyl-14a-(((1-methylcyclopropyl)sulfonyl)carbamoyl)-5,16-dioxo-1,2,3,5,6,7,8,9,10,11,13a,14,14a,15,16,16a-hexadecahydrocyclopropa[e]pyrrolo[1,2-a][1,4]diazacyclopentadecin-6-yl)carbamate]	1.01 to 5	1.01 to 5	1.71	1.48
Cc1csc(-c2cc(O[C@@H]3C[C@H]4C(=O)N[C@]5(C(=O)NS(=O)(=O)C6(C)CC6)C[C@H]5/C=C\CC[C@@H](C)C[C@@H](C)[C@H](NC(=O)OC(C)(C)C(F)(F)F)C(=O)N4C3)ccn2)n1 [Compound 1045, 1,1,1-trifluoro-2-methylpropan-2-yl ((2R,6S,7R,9R,13aS,14aR,16aS,Z)-7,9-dimethyl-14a-(((1-methylcyclopropyl)sulfonyl)carbamoyl)-2-((2-(4-methylthiazol-2-yl)pyridin-4-yl)oxy)-5,16-dioxo-1,2,3,5,6,7,8,9,10,11,13a,14,14a,15,16,16a-hexadecahydrocyclopropa[e]pyrrolo[1,2-a][1,4]diazacyclopentadecin-6-yl)carbamate]	0.1 to 0.5	1.01 to 5		
C[C@H]1CC/C=C\[C@@H]2C[C@@]2(C(=O)NS(=O)(=O)C2(C)CC2)NC(=O)[C@@H]2C[C@@H](Oc3cc(-c4nccs4)nc(-c4nccs4)c3)CN2C(=O)[C@@H](NC(=O)OC(C)(C)C(F)(F)F)[C@H](C)C1 [Compound 1024, 1,1,1-trifluoro-2-methylpropan-2-yl ((2R,6S,7R,9S,13aS,14aR,16aS,Z)-2-((2,6-di(thiazol-2-yl)pyridin-4-yl)oxy)-7,9-dimethyl-14a-(((1-methylcyclopropyl)sulfonyl)carbamoyl)-5,16-dioxo-1,2,3,5,6,7,8,9,10,11,13a,14,14a,15,16,16a-hexadecahydrocyclopropa[e]pyrrolo[1,2-a][1,4]diazacyclopentadecin-6-yl)carbamate]	0.51 to 1	1.01 to 5		
CC(C)Oc1ccc(-c2cc(Cl)cc(O[C@@H]3C[C@H]4C(=O)N[C@]5(C(=O)NS(=O)(=O)C6(C)CC6)C[C@H]5/C=C\CC[C@@H](C)C[C@@H](C)[C@H](NC(=O)OC(C)(C)C)C(=O)N4C3)n2)cc1 [Compound 1029, tert-butyl ((2R,6S,7R,9R,13aS,14aR,16aS,Z)-2-((4-chloro-6-(4-isopropoxyphenyl)pyridin-2-yl)oxy)-7,9-dimethyl-14a-(((1-methylcyclopropyl)sulfonyl)carbamoyl)-5,16-dioxo-1,2,3,5,6,7,8,9,10,11,13a,14,14a,15,16,16a-hexadecahydrocyclopropa[e]pyrrolo[1,2-a][1,4]diazacyclopentadecin-6-yl)carbamate]	1.01 to 5	1.01 to 5		
CC(C)Oc1ccc(-c2cc(O[C@@H]3C[C@H]4C(=O)N[C@]5(C(=O)NS(=O)(=O)C6(C)CC6)C[C@H]5/C=C\CC[C@@H](C)C[C@@H](C)[C@H](NC(=O)OC5(C(F)(F)F)CCCOC5)C(=O)N4C3)cc(-c3ccccn3)n2)cc1 (stereo partly drawn) [Compound 1051, 3-(trifluoromethyl)tetrahydro-2H-pyran-3-yl ((2R,6S,7R,9R,13aS,14aR,16aS,Z)-2-((6-(4-isopropoxyphenyl)-[2,2′-bipyridin]-4-yl)oxy)-7,9-dimethyl-14a-(((1-methylcyclopropyl)sulfonyl)carbamoyl)-5,16-dioxo-1,2,3,5,6,7,8,9,10,11,13a,14,14a,15,16,16a-hexadecahydrocyclopropa[e]pyrrolo[1,2-a][1,4]diazacyclopentadecin-6-yl)carbamate]	0.1 to 0.5	1.01 to 5		
CC(C)Oc1ccc(-c2cc(O[C@@H]3C[C@H]4C(=O)N[C@]5(C(=O)NS(=O)(=O)C6(C)CC6)C[C@H]5/C=C\CC[C@H](C)C[C@@H](C)[C@H](NC(=O)OC(C)(C)C(F)(F)F)C(=O)N4C3)cc(-c3cncs3)n2)cc1 [Compound 1004, 1,1,1-trifluoro-2-methylpropan-2-yl ((2R,6S,7R,9S,13aS,14aR,16aS,Z)-2-((2-(4-isopropoxyphenyl)-6-(thiazol-5-yl)pyridin-4-yl)oxy)-7,9-dimethyl-14a-(((1-methylcyclopropyl)sulfonyl)carbamoyl)-5,16-dioxo-1,2,3,5,6,7,8,9,10,11,13a,14,14a,15,16,16a-hexadecahydrocyclopropa[e]pyrrolo[1,2-a][1,4]diazacyclopentadecin-6-yl)carbamate]	1.01 to 5	5.01 to 35		
CC(C)Oc1ccc(-c2cc(O[C@@H]3C[C@H]4C(=O)N[C@]5(C(=O)NS(=O)(=O)C6(C)CC6)C[C@H]5/C=C\CC[C@H](C)C[C@@H](C)[C@H](NC(=O)OC(C)(C)C(F)(F)F)C(=O)N4C3)cc(-c3ccncc3)n2)cc1 [Compound 1010, 1,1,1-trifluoro-2-methylpropan-2-yl ((2R,6S,7R,9S,13aS,14aR,16aS,Z)-2-((6-(4-isopropoxyphenyl)-[2,4′-bipyridin]-4-yl)oxy)-7,9-dimethyl-14a-(((1-methylcyclopropyl)sulfonyl)carbamoyl)-5,16-dioxo-1,2,3,5,6,7,8,9,10,11,13a,14,14a,15,16,16a-hexadecahydrocyclopropa[e]pyrrolo[1,2-a][1,4]diazacyclopentadecin-6-yl)carbamate]	5.01 to 35	5.01 to 35		
CC(C)Oc1ccc(-c2cc(O[C@@H]3C[C@H]4C(=O)N[C@]5(C(=O)NS(=O)(=O)C6(C)CC6)C[C@H]5/C=C\CC[C@H](C)C[C@@H](C)[C@H](NC(=O)OC(C)(C)C(F)(F)F)C(=O)N4C3)cc(-c3cccnc3)n2)cc1 [Compound 1006, 1,1,1-trifluoro-2-methylpropan-2-yl ((2R,6S,7R,9S,13aS,14aR,16aS,Z)-2-((6-(4-isopropoxyphenyl)-[2,3′-bipyridin]-4-yl)oxy)-7,9-dimethyl-14a-(((1-methylcyclopropyl)sulfonyl)carbamoyl)-5,16-dioxo-1,2,3,5,6,7,8,9,10,11,13a,14,14a,15,16,16a-hexadecahydrocyclopropa[e]pyrrolo[1,2-a][1,4]diazacyclopentadecin-6-yl)carbamate]	5.01 to 35	5.01 to 35		
CC(C)Oc1ccc(-c2cc(O[C@@H]3C[C@H]4C(=O)N[C@]5(C(=O)NS(=O)(=O)C6(C)CC6)C[C@H]5/C=C\CC[C@H](C)C[C@@H](C)[C@H](NC(=O)OC(C)(C)C(F)(F)F)C(=O)N4C3)cc(-c3cnccn3)n2)cc1 [Compound 1002, 1,1,1-trifluoro-2-methylpropan-2-yl ((2R,6S,7R,9S,13aS,14aR,16aS,Z)-2-((2-(4-isopropoxyphenyl)-6-(pyrazin-2-yl)pyridin-4-yl)oxy)-7,9-dimethyl-14a-(((1-methylcyclopropyl)sulfonyl)carbamoyl)-5,16-dioxo-1,2,3,5,6,7,8,9,10,11,13a,14,14a,15,16,16a-hexadecahydrocyclopropa[e]pyrrolo[1,2-a][1,4]diazacyclopentadecin-6-yl)carbamate]	5.01 to 35	35 to 359	11.6	59
